Experimental data taken from the supplement of paper PMC10307832.

Columns and labels:
Assay in all cases: relative viability (nuclei count vs DMSO), 5 days (fraction); higher = more cells survive
IU1-47 + Bortezomib = compound: CC1=CC(=C(N1C2=CC=C(C=C2)Cl)C)C(=O)CN3CCCCC3 [IU1-47] + CC(C)C[C@H](NC(=O)[C@H](Cc1ccccc1)NC(=O)c1cnccn1)B(O)O [Bortezomib] (partner 0.002 µM)
Method in brief: (§1)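 One day after seeding in 1536-well plates, lung cancer cell lines were dosed by pin tool. Dosing was either single-drug or a fixed anchor-drug dose plus five library-drug doses (not always all listed) in √10 steps. After 5 days, nuclei were stained in one fix-and-stain step and counted on 4× images, and relative viability is the nuclei count of treated wells over that of vehicle wells, given as the median of duplicate plates.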

IU1-47 + Linsitinib = compound: CC1=CC(=C(N1C2=CC=C(C=C2)Cl)C)C(=O)CN3CCCCC3 [IU1-47] + C[C@]1(O)C[C@@H](c2nc(-c3ccc4ccc(-c5ccccc5)nc4c3)c3c(N)nccn32)C1 [Linsitinib] (partner 1 µM)
Method in brief: as §1

FG-4592 + Palbociclib = compound: Cc1nc(C(=O)NCC(=O)O)c(O)c2ccc(Oc3ccccc3)cc12 [FG-4592] + CC(=O)c1c(C)c2cnc(Nc3ccc(N4CCNCC4)cn3)nc2n(C2CCCC2)c1=O [Palbociclib] (partner 0.5 µM)
Method in brief: as §1

FG-4592 + Dasatinib = compound: Cc1nc(C(=O)NCC(=O)O)c(O)c2ccc(Oc3ccccc3)cc12 [FG-4592] + Cc1nc(Nc2ncc(C(=O)Nc3c(C)cccc3Cl)s2)cc(N2CCN(CCO)CC2)n1 [Dasatinib] (partner 0.075 µM)
Method in brief: as §1

Cell Line	relative viability (IU1-47 + Bortezomib; first compound 0.08 µM)	relative viability (IU1-47 + Bortezomib; first compound 0.253 µM)	relative viability (IU1-47 + Bortezomib; first compound 0.8 µM)	relative viability (IU1-47 + Bortezomib; first compound 2.53 µM)	relative viability (IU1-47 + Bortezomib; first compound 8 µM)	relative viability (IU1-47 + Linsitinib; first compound 0.08 µM)	relative viability (IU1-47 + Linsitinib; first compound 0.253 µM)	relative viability (IU1-47 + Linsitinib; first compound 0.8 µM)	relative viability (IU1-47 + Linsitinib; first compound 2.53 µM)	relative viability (IU1-47 + Linsitinib; first compound 8 µM)	relative viability (FG-4592 + Palbociclib; first compound 0.08 µM)	relative viability (FG-4592 + Palbociclib; first compound 0.253 µM)	relative viability (FG-4592 + Palbociclib; first compound 0.8 µM)	relative viability (FG-4592 + Palbociclib; first compound 2.53 µM)	relative viability (FG-4592 + Palbociclib; first compound 8 µM)	relative viability (FG-4592 + Dasatinib; first compound 0.08 µM)	relative viability (FG-4592 + Dasatinib; first compound 0.253 µM)	relative viability (FG-4592 + Dasatinib; first compound 0.8 µM)	relative viability (FG-4592 + Dasatinib; first compound 2.53 µM)	relative viability (FG-4592 + Dasatinib; first compound 8 µM)
LXF-289	0.993	1.06	1.05	1.05	0.954	0.984	0.998	1.02	0.954	0.954	0.551	0.563	0.615	0.588	0.603	0.22	0.186	0.19	0.168	0.189
NCI-H23	0.988	1.24	1.27	1.02	0.949	0.607	0.741	0.686	0.665	0.533	0.628	0.45	0.501	0.547	0.453	0.841	0.669	0.706	0.694	0.862
NCI-H322M	1.22	1.2	1.12	1.17	1.29	1	0.88	1.03	0.927	0.887		0.455	0.444	0.465	0.483	0.248	0.249	0.219	0.245	0.224
NCI-H441	0.732	0.574	0.489	0.561	0.56	0.703	0.49	0.594	0.438	0.44	0.226	0.214	0.208	0.226	0.186	0.56	0.547	0.524	0.55	0.555
NCI-H460	1.14	1.25	1.14	1.2	0.469	1.21	1.1	0.986	0.665	0.559	0.204	0.168	0.173	0.155	0.119	0.527	0.511	0.43	0.457	0.368
NCI-H520	0.679	0.687	0.821	0.576	0.408	0.849	1.13	0.934	0.974	0.666	0.15	0.174	0.192	0.215	0.162	0.171	0.206	0.133	0.157	0.157
NCI-H647	0.97	0.904	1.08	0.859	0.862	1.22	1.2	1.12	1.19	1.01	0.422	0.416	0.366	0.374	0.175	0.186	0.202	0.145	0.172	0.183
NCI-H650	0.908	0.811	0.952	0.742	0.681	0.831	0.966	0.924	0.796	0.875	0.338	0.264	0.327	0.321	0.263	0.464	0.491	0.393	0.407	0.392
